The values below come from publication PMC6696243, “Synthesis and In Vitro Evaluation of 8-Pyridinyl-Substituted Benzo[e]imidazo[2,1-c][1,2,4]triazines as Phosphodiesterase 2A Inhibitors” (Molecules, 2019).

The test system of data set [1] is PDE2A. The note with it: cited from earlier work; for IC50: Figure 1.
The test system of data set [2] is PDE10A. The arrangement: method as in PMID 27213312, PMID 26016549, PMID 29498659. Conditions: Figure 1; cited from earlier work.
Data set [3] deals with T1, PDE4A1 (Homo sapiens, UniProt P27815).
T1 construct: purchased SB Drug Discovery (Scotland, U.K.); host or cells: baculoviral system
T1 sequence (P27815 1-647 isoform P27815-4): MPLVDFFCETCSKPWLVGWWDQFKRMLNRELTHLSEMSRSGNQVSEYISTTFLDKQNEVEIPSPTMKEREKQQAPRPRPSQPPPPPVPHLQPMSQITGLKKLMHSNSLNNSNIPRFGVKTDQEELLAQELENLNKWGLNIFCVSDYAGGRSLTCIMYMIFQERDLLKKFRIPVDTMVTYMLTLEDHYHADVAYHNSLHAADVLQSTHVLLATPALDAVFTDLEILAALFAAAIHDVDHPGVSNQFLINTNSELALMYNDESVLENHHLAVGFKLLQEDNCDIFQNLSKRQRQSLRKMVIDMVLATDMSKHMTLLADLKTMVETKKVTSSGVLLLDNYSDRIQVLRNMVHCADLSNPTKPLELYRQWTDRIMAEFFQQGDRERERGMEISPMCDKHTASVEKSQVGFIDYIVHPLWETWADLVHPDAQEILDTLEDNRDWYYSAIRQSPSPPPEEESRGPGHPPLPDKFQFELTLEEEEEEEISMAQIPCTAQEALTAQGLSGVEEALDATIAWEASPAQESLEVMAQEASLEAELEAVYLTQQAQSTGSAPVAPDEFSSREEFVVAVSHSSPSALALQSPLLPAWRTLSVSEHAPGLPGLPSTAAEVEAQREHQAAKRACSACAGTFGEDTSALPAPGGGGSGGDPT
Nature of the data set: PDE4A1 radiometric enzyme inhibition assay. The format is biochemical. The note with it: compound at 1 µM; read-out: Inhibition of PDE Sub-Types (%) 4A1.

The target in data set [4] is T2, PDE5A1 (Homo sapiens, UniProt O76074).
T2 construct: purchased SB Drug Discovery (Scotland, U.K.); host or cells: baculoviral system
Nature of the data set: PDE5A1 radiometric enzyme inhibition assay. The data set is classed as biochemical. The note with it: compound at 1 µM; read-out: Inhibition of PDE Sub-Types (%) 5A1.

For data set [5], the target named is T3, PDE9A1 (Homo sapiens, UniProt O76083).
T3 construct: purchased SB Drug Discovery (Scotland, U.K.); host or cells: baculoviral system
T3 sequence (O76083 whole entry): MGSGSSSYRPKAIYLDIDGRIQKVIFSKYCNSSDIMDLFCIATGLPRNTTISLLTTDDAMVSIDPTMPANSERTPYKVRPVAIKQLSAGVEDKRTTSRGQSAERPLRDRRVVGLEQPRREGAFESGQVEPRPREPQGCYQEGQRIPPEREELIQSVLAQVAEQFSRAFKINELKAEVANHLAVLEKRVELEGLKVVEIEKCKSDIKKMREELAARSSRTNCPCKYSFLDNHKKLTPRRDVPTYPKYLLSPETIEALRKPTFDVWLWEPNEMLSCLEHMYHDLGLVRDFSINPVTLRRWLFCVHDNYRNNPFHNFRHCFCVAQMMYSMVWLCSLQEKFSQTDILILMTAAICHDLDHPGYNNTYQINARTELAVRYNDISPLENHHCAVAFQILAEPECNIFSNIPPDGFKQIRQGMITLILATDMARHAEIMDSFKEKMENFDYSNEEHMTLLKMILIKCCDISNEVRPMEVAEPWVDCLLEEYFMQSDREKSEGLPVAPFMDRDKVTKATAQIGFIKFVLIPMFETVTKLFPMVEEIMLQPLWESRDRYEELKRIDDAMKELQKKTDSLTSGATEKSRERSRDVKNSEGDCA
Nature of the data set: PDE9A1 radiometric enzyme inhibition assay. The format is biochemical. Conditions: compound at 1 µM; read-out: Inhibition of PDE Sub-Types (%) 9A1.

In data set [6] the target is T4, PDE1A3 (Homo sapiens, UniProt P54750).
T4 construct: purchased SB Drug Discovery (Scotland, U.K.); host or cells: baculoviral system
Nature of the data set: PDE1A3 radiometric enzyme inhibition assay. The format is biochemical. Conditions: measured at 1 µM.

The target in data set [7] is T5, PDE3A (Homo sapiens, UniProt Q14432).
T5 construct: purchased SB Drug Discovery (Scotland, U.K.); host or cells: baculoviral system
T5 sequence (Q14432 whole entry): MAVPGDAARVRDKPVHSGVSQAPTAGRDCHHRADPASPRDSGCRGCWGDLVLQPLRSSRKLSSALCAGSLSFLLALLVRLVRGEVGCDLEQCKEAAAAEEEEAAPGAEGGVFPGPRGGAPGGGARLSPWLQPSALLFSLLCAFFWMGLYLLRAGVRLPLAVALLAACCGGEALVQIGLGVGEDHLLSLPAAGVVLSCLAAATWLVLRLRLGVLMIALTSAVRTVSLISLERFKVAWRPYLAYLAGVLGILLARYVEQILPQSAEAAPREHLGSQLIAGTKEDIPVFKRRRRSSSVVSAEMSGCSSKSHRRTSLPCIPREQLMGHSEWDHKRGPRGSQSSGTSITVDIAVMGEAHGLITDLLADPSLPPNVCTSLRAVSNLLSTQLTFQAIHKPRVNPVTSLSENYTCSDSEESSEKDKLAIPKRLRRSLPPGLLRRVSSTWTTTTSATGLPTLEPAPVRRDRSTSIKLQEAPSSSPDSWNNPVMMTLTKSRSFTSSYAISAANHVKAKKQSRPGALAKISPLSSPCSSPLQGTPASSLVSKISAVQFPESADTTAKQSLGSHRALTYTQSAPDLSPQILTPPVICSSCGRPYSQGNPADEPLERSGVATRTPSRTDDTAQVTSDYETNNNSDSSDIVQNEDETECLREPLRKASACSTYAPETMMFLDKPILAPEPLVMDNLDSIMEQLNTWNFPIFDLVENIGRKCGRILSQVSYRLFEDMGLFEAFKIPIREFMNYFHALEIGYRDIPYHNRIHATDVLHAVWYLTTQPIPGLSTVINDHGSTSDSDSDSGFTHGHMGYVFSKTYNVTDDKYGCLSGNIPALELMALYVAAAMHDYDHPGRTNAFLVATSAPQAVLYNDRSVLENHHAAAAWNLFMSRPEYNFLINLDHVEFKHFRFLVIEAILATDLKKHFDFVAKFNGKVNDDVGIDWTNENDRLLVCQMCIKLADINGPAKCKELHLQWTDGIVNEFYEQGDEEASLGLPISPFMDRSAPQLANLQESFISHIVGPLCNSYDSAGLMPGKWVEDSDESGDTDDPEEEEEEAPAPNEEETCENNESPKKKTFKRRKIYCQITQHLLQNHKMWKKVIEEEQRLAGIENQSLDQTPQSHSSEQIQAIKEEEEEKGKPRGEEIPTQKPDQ
Nature of the data set: PDE3A radiometric enzyme inhibition assay. The note with it: measured at 1 µM. The data set is classed as biochemical.

Data set [8] concerns the target T6, PDE6AB (Homo sapiens, UniProt P16499+P35913).
T6 construct: purchased SB Drug Discovery (Scotland, U.K.); host or cells: baculoviral system
The data set can be described thus: PDE6AB radiometric enzyme inhibition assay. The format is biochemical. Conditions: measured at 1 µM.

Data set [9] concerns the target T7, PDE7A (Homo sapiens, UniProt Q13946).
T7 construct: purchased SB Drug Discovery (Scotland, U.K.); host or cells: baculoviral system
Nature of the data set: PDE7A radiometric enzyme inhibition assay. The data set is classed as biochemical. The note with it: measured at 1 µM.

In data set [10] the target is T8, PDE8A1 (Homo sapiens, UniProt O60658).
T8 construct: purchased SB Drug Discovery (Scotland, U.K.); host or cells: baculoviral system
Nature of the data set: PDE8A1 radiometric enzyme inhibition assay. The data set is classed as biochemical. The note with it: measured at 1 µM.

Data set [11] addresses T9, PDE11A (Homo sapiens, UniProt Q9HCR9).
T9 construct: purchased SB Drug Discovery (Scotland, U.K.); host or cells: baculoviral system
The data set can be described thus: PDE11A radiometric enzyme inhibition assay. The data set is classed as biochemical. Conditions: measured at 1 µM.

Data set [12] is described as follows: Incubation with mouse liver microsomes, HPLC-UV-MS. In general terms: Microsomes from liver hold many membrane-bound enzymes, among them those of drug oxidation.
Description: After protein precipitation by addition of acetonitrile and subsequent centrifugation, the supernatant was examined by HPLC-UV-MS.
Analogously, preincubated NADPH (2 mM) was added, and the mixtures were gently shaken at 37 °C. After 90 min, portions of 1.0 mL of cold acetonitrile (−20 °C) were added, respectively, followed by vigorous shaking (30 s), cooling on ice (4 min), and centrifugation at 14,000 rpm (10 min). Supernatants were concentrated at 50 °C under a flow of nitrogen to provide residual volumes of 40–60 µL, which were reconditioned by adding acetonitrile/water 1:1 (v/v) to obtain samples of 100 µL, which were stored at 4 °C until analyzed by HPLC-UV-MS.
HPLC-UV-MS analyses were performed on a ReproSil-Pur 120 C18-AQ-column, 125 mm × 3 mm, 3 µm (Dr. Maisch GmbH, Ammerbuch, Germany) equipped with an appropriate precolumn at 25 °C and a flow rate of 0.7 mL/min. The solvent system consisted of Eluent A: water, containing 2 mM ammonium acetate, and Eluent B: water/acetonitrile 20/80 (v/v), containing 2 mM ammonium acetate. Two methods were applied. Method A (gradient elution, % acetonitrile): 0–1.5 min, 10%; 1.5–10 min, 10–80%; 10-13 min, 80%; 13–16 min 10%. Method B (isocratic elution, % acetonitrile): 0–25 min, 42%. […] MSQ Plus single quadrupole mass spectrometer was operated in positive electrospray ionization mode: probe temperature 500 °C, needle voltage 5 V, cone voltage 75 V.
The target in data set [13] is T10, human PDE2A3 (Homo sapiens, UniProt O00408). The data set can be described thus: PDE2A3 radiometric enzyme inhibition assay. Conditions: for Inhibition of PDE Sub-Types (%) 2A3: compound at 10 nM; for Selectivity Ratio (PDE10A/PDE2A): ratio of IC50 PDE10A to IC50 PDE2A, fold.
T10 sequence (O00408 whole entry): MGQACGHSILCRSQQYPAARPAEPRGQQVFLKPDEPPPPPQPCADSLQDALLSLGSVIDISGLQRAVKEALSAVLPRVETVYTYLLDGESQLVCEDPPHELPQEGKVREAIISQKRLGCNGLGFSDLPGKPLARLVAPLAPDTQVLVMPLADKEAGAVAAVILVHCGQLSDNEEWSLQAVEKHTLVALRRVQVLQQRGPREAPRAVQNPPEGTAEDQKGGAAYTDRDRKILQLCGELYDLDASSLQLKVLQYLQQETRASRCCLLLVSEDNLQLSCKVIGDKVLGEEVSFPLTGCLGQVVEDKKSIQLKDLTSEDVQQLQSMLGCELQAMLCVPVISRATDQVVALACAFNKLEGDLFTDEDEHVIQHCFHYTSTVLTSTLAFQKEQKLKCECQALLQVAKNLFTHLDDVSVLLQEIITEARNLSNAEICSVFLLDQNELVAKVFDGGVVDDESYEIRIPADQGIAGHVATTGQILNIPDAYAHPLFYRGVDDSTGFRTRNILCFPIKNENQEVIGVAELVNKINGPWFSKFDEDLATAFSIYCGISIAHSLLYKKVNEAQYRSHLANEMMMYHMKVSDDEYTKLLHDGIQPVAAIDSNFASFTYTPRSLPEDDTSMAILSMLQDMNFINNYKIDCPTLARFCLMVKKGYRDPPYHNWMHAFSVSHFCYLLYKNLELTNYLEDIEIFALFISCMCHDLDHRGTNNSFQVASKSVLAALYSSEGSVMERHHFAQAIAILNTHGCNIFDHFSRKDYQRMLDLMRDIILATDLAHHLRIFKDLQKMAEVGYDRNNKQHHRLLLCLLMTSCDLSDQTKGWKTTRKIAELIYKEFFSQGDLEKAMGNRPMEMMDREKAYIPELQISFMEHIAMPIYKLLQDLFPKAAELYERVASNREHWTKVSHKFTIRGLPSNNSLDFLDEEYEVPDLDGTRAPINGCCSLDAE
Description: (§1) The phosphodiesterase assays were performed using recombinant human PDE enzymes expressed in a baculoviral system. […] The radiometric assay was a modification of the two-step method of Thompson and Appleman [45], which was adapted for 96-well plate format.
(§2) Firstly, tritium-labeled cyclic AMP or cyclic GMP was hydrolyzed to 5′-AMP or 5′-GMP by phosphodiesterase. The 5′-AMP or 5′-GMP was then further hydrolyzed to adenosine or guanosine by nucleotidase in snake venom. An anion-exchange resin bound all charged nucleotides and left [^3H]adenosine or [^3H]guanosine as the only labeled compound to be counted by liquid scintillation. Briefly, 50 µL of diluted human PDE enzyme were incubated with 50 µL of [^3H]-cAMP or [^3H]-cGMP and 11 µL of 50% DMSO (or compound dilution) for 20 min (at 30 °C). Reactions were carried out in a Greiner 96-deep well 1-mL master-block. The enzyme was diluted in 20 mM Tris HCl pH 7.4 and [^3H]-cAMP or [^3H]-cGMP are diluted in 10 mM MgCl2, 40 mM Tris HCl pH 7.4. The reaction is terminated by denaturing the PDE enzyme (at 70 °C for 2 min), after which 25 µL of snake venom nucleotidase were added and incubated for 10 min (at 30 °C). Plates were centrifuged for 9 seconds before incubation. After incubation, 200 µL of Dowex resin were added, and the plate was shaken for 20 min then centrifuged for 3 min at 2500 r.p.m. Fifty microliters of supernatant were removed and added to 200 µL of MicroScint-20 in white plates (Greiner 96-well Optiplate) and shaken for 30 min before reading on a Perkin Elmer TopCount Scintillation Counter.
(§3) Compounds were tested at a concentration of 10 nM against human PDE2A3 and at 1 µM for PDE4A1, PDE5A, PDE6AB, PDE9A1, and PDE10A1. The percentage of inhibition of the compounds and standard inhibitors was determined and compared to historical assay data to ensure that they fell within acceptable ranges.
In data set [14] the target is T11, PDE10A1 (Homo sapiens, UniProt Q9Y233). The data set can be described thus: PDE10A1 radiometric enzyme inhibition assay. Conditions: for Inhibition of PDE Sub-Types (%) 10A1: compound at 1 µM.
T11 sequence (Q9Y233 1-779 isoform Q9Y233-1): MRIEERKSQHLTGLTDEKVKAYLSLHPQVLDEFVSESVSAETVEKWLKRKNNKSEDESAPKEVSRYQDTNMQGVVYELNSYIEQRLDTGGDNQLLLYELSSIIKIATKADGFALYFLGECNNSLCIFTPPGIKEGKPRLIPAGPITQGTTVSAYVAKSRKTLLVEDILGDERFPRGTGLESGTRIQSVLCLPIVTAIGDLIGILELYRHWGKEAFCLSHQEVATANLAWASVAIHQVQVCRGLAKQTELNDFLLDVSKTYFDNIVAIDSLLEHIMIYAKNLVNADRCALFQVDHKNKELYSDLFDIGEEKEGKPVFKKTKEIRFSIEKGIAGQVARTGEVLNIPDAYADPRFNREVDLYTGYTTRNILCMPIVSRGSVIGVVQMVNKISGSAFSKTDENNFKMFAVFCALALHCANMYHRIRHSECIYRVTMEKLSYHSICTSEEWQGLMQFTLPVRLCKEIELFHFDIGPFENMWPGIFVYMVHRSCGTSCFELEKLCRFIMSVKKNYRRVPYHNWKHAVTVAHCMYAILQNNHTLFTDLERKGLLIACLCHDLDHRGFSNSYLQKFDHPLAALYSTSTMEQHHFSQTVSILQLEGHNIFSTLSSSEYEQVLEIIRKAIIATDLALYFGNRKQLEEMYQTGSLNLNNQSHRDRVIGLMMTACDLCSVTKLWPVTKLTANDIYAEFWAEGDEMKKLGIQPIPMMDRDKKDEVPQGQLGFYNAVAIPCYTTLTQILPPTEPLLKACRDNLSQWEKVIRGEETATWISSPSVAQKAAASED
Description: as §1, §2, §3
The target in data set [15] is T10, human PDE2A3. The data set can be described thus: biochemical.
Description: as §1, §2, §3
Data set [16] addresses T11, PDE10A1. Nature of the data set: biochemical.
Description: as §1, §2, §3

“And” between values parts separate entries of the source, which are not always exact repeats. Equal values may be shown once. “Also recorded” adds a separate entry of the source.

T7 sequence (Q13946 whole entry): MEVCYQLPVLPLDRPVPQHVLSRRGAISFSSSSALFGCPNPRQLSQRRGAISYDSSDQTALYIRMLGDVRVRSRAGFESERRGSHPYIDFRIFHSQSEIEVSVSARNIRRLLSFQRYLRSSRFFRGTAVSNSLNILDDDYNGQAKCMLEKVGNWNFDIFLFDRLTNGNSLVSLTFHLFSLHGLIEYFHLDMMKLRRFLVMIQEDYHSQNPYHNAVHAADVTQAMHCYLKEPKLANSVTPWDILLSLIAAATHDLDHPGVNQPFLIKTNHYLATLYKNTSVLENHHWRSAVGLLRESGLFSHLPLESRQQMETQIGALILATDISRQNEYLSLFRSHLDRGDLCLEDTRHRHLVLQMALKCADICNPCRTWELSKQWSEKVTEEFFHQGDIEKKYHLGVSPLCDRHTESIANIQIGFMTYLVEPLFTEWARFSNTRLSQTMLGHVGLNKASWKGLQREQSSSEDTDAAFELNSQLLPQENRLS

Consider `COc1cc(Br)cc2c1nc(C)c1c(C)nc(-c3ccc(F)nc3)n12` [AQ28A], for which the half-inhibitory concentration (IC50) in data set [1] was greater than 1000 nM; in data set [2], 2.95 nM.
`COc1ccc(Cc2nn3c([C@H](CCCc4ccccc4)[C@H](C)O)nc(C)c3c(=O)[nH]2)cc1OC` [BAY 60-7550]: the IC50 in data set [1] is 4.7 nM.
For the compound `COc1ccc(Cl)c(-c2nc(C)c3nnc4ccc(-c5ccnc(F)c5)cc4n23)c1` [BIT1, 1-(2-Chloro-5-methoxyphenyl)-8-(2-fluoropyridin-4-yl)-3methylbenzo[e]imidazo[5,1-c][1,2,4]triazine], the inhibition at 1 µM in data set [3] is 58.6%; in [4], 29.3%; in data set [5], less than 0%; in data set [6], 12.6%; in data set [7], 20%; in [8], 16.8%. Further, the figures for the inhibition at 1 µM in [9], in [10] and in data set [11] were 16.4%, 23.3% and 14.5%, respectively. In addition, in data set [12] (MLM 1 mg/mL, NADPH 2 mM, 20 µM compound, 37 °C, 90 min), the “Metabolic stability in vitro” value is listed as “unchanged BIT1 could still be detected in high amounts; also recorded: considerable metabolic stability; also recorded: sufficiently stable”.
Take `Cc1nc(-c2cc(OCC3(C)COC3)ccc2Cl)n2c1nnc1ccc(-c3ccc(F)nc3)cc12` [BIT2, 1-(2-Chloro-5-((3-methyloxetan-3-yl)methoxy)phenyl)-8-(6-fluoropyridin-3-yl)-3-methylbenzo[e]imidazo[5,1-c][1,2,4]triazine]: the inhibition at 1 µM in data set [3] is 64.1%; in data set [4] it was less than 0%; in data set [5] it was less than 0%. The “Inhibition of PDE Sub-Types (%) 2A3” value in data set [13] is given as 8.52%. Also, in data set [14], the “Inhibition of PDE Sub-Types (%) 10A1” value amounted to 2.46%.
As to `Cc1nc(-c2cc(OCC3(C)COC3)ccc2Cl)n2c1nnc1ccc(-c3ccnc(F)c3)cc12` [BIT3, 1-(2-Chloro-5-((3-methyloxetan-3-yl)methoxy)phenyl)-8-(2-fluoropyridin-4-yl)-3-methylbenzo[e]imidazo[5,1-c][1,2,4]triazine], the inhibition at 1 µM in data set [3] is 72.7%; in data set [4], less than 0%; in [5], less than 0%. Besides, in [13], the “Inhibition of PDE Sub-Types (%) 2A3” value was 13.2%. Moreover, the “Inhibition of PDE Sub-Types (%) 10A1” value in [14] stood at 28.2%.
Consider `COc1ccc(Cl)c(-c2nc(C)c3nnc4ccc(-c5ccc(F)nc5)cc4n23)c1` [BIT4, 1-(2-Chloro-5-methoxyphenyl)-8-(6-fluoropyridin-3-yl)-3 methylbenzo[e]imidazo[5,1-c][1,2,4]triazine], for which the inhibition at 1 µM in [3], in [4] and in [5] was less than 0% throughout. The “Inhibition of PDE Sub-Types (%) 2A3” value in data set [13] was 2.63%. Moreover, the “Selectivity over PDE10A compared to BIT7” value in data set [14] is reported as “eight”. In data set [14], the “Inhibition of PDE Sub-Types (%) 10A1” value turned out to be 10.8%.
For `COc1ccc(Cl)c(-c2nc(C)c3nnc4ccc(-c5cccnc5F)cc4n23)c1` [BIT5, 1-(2-Chloro-5-methoxyphenyl)-8-(2-fluoropyridin-3-yl)-3 methylbenzo[e]imidazo[5,1-c][1,2,4]triazine], the inhibition at 1 µM in data set [3], in [4] and in [5] was less than 0% each time. The “Inhibition of PDE Sub-Types (%) 2A3” value in data set [13] is listed as “NI (NI: No Inhibition)”. Besides, the “Selectivity over PDE10A compared to BIT7” value in [14] is recorded as “four”. Further, in data set [14], the “Inhibition of PDE Sub-Types (%) 10A1” value is on record as 22.1%.
In the case of `COc1ccc(F)c(-c2nc(C)c3nnc4ccc(-c5ccnc(F)c5)cc4n23)c1` [BIT6, 1-(2-Fluoro-5-methoxyphenyl)-8-(2-fluoropyridin-4-yl)-3-methylbenzo[e]imidazo[5,1-c][1,2,4]triazine], the results for the inhibition at 1 µM in data set [3], in data set [4] and in [5] were 54.2%, 13.6% and 28.4%, respectively. For the same compound, the IC50 in [15] is 65.1 nM; in data set [16] it was 168 nM. For the same compound, in data set [13] (0.01 µM), the “Inhibition of PDE Sub-Types (%) 2A3” value was 56% and 56.6%. Also, the “Selectivity Ratio (PDE10A/PDE2A)” value in data set [13] came to 2.5. In addition, in data set [14], the “Inhibition of PDE Sub-Types (%) 10A1” value came to 74.0%.
Take `COc1ccc(Cl)c(-c2nc(C)c3nnc4ccc(-c5cncc(F)c5)cc4n23)c1` [BIT7, 1-(2-Chloro-5-methoxyphenyl)-8-(3-fluoropyridin-5-yl)-3 methylbenzo[e]imidazo[5,1-c][1,2,4]triazine]: the inhibition at 1 µM was 65.7% in [3], 25.1% in data set [4] and 11.5% in [5]. Also, the “Inhibition of PDE Sub-Types (%) 10A1” value in data set [14] is recorded as 87.0%.
In the case of `COc1ccc(F)c(-c2nc(C)c3nnc4ccc(-c5cccnc5)cc4n23)c1` [BIT8, 1-(2-Fluoro-5-methoxyphenyl)-3-methyl-8-(pyridin-3-yl)benzo[e]imidazo[5,1-c][1,2,4]triazine], the inhibition at 1 µM was 13.9% in data set [3], 36.2% in data set [4] and less than 0% in data set [5]. Moreover, the “Inhibition of PDE Sub-Types (%) 2A3” value in data set [13] is “NI (NI: No Inhibition)”. In data set [14], the “Inhibition of PDE Sub-Types (%) 10A1” value came out at 55.5%.
Take `COc1ccc(F)c(-c2nc(C)c3nnc4ccc(-c5ccncc5)cc4n23)c1` [BIT9, 1-(2-Fluoro-5-methoxyphenyl)-3-methyl-8-(pyridin-4-yl)benzo[e]imidazo[5,1-c][1,2,4]triazine]: the inhibition at 1 µM in data set [3] was 86.8%; in data set [4], 57.7%; in data set [5], 17.5%. The values for the IC50 in [15] and in data set [16] were 17.7 nM and 20.2 nM, respectively. Besides, in [13], the “Inhibition of PDE Sub-Types (%) 2A3” value turned out to be 80.5%. The “Selectivity Ratio (PDE10A/PDE2A)” value in [13] was 1.1. Also, the “Inhibition of PDE Sub-Types (%) 10A1” value in [14] is 96.6%.
`COc1ccc(Cl)c(-c2nc(C)c3nnc4ccc(F)cc4n23)c1` [III]: the IC50 is 20.1 nM in data set [1] and 183 nM in [2].
On to `COc1ccc(Cl)c(-c2nc(C)c3nnc4c(OC)cc(F)cc4n23)c1` [II], for which the IC50 in [1] was 108 nM; in data set [2], 2.45 nM.
`CCCCOc1ccc(F)c(-c2nc(C)c3nnc4ccc(OC)nc4n23)c1` [TA1, reference compound]: the results for the inhibition at 1 µM in [3], in data set [4] and in data set [5] were 24.9%, 3.08% and less than 0%, respectively.
`COc1ccc2nnc3c(C)nc(-c4cc(OCCCF)ccc4F)n3c2n1` [TA3]: the IC50 in data set [1] is 11.4 nM; in data set [2] it was 318 nM. Moreover, in data set [1], the “Selectivity for PDE2A over PDE10A” value was 28 fold.
For the compound `COc1ccc2nnc3c(C)nc(-c4cc(OCCCCF)ccc4F)n3c2n1` [TA4], in data set [1], the IC50 is 7.3 nM and the “Selectivity for PDE2A over PDE10A” value is 125 fold. For the same compound, the IC50 in data set [2] was 913 nM.
As for `CCCCOc1ccc(F)c(-c2nc(C)c3nnc4ccc(OCCF)nc4n23)c1` [TA5], in [2], the IC50 is greater than 1000 nM.
Take `C[C@]12CC[C@H]3[C@@H](CCC4=CC(=O)CC[C@@]43C)[C@@H]1CC[C@@H]2O` [testosterone, reference compound]: in data set [12] (MLM with NADPH, confirmed by HPLC), the “Conversion of positive control substrate” value is “complete conversion”.

In general, IC50 refers to the concentration that gives 50% inhibition. As a reminder, the inhibition is how much of the control response was suppressed.
